Assay results taken from patent US6552010B1 (Genelabs Technologies, Inc., priority 1999, dated 2003).

Legend:
[1] = Uptake and absorption of DHEA polymorph preparations upon oral administration
[2] = Stability of DHEA polymorph preparations under ambient conditions
SLE patients [3] = experiment: Clinical trial: responders by window analysis of SLEDAI, SLAM, Patient VAS and KFSS; type: in vivo, human; conditions: for Responders (3% window), number of patients / Responders (3% window), percent / Responders (5% window), number of patients / Responders (5% window), percent / Responders (10% window), number of patients / Responders (10% window), percent: 200 mg DHEA per day orally
Description: For each of the disease activity variables (SLEDAI and SLAM) and constitutional symptom variables (Patient VAS and KFSS), the value of interest for each patient is determined as the difference between a pretreatment baseline value, calculated as the mean of two baseline values, taken prior to any treatment with DHEA), and values taken during treatment, calculated as the mean of all values obtained during on-treatment scheduled visits, e.g., 13, 26, 39, and 52 weeks of treatment.
For each of the variables, an improvement in the variable is defined as either (i) no change in the variable or (ii) a decrease in the variable. Thus, for example, an improvement in a baseline SLEDAI score of 5.00 would be any value 5.00 or less. A change in a variable that represents a worsening of the state or condition is any increase in the measured value.
Thus, for a baseline SLEDAI value of 5.0, and a 3% cap, the maximum allowed increase in SLEDAI value, for classification as a 3% responder is 0.15
The mean baseline scores represent the mean of two value determinations made prior to treatment.
Each group, in turn, can be broken down into three subgroups: (I) total patient population (II) all patients with SLEDAI values greater than 2, and (III) patients having SLEDAI values greater than 2 and currently being treated with prednisone (at dose greater than 2 mg/prednisone /day), where the number of patients in each subgroup is indicated by N in the Table 5.
(§1) Treatment was with 200 mg DHEA per day, administered orally in capsule form, or with a non-drug capsule (placebo). Mean duration of the treatment for each group was somewhat higher for the placebo group (308 days for placebo vs 288.4 days for DHEA, but median durations were almost the identical (362 vs. 359 days, respectively.).
The three columns in the table represent total of the three subgroups for both the placebo and treatment group. The three rows represent responders in which an improvement (no change or decrease in value) in three the three of the four variables was observed and an increase in the fourth variable of no more than 3% (first row), 5% (second row), and 10% (third row) of the pretreatment baseline value.

SLE patients [4] = experiment: Clinical trial: effect of DHEA treatment on SLE flares; type: in vivo, human; conditions: for Patients with at least one flare, patients/total / Patients with at least one flare, percent: 200 mg DHEA per day orally
Description: A clinical trial was conducted to determine the effect of DHEA treatment on SLE flares. An SLE flare is a significant new clinical manifestation of the disease (i.e., one that was not previously present in the patient or not previously as severe) and/or a clinical intervention. Table 6 identifies the clinical findings or interventions that were scored as flares in the present study. Any patient having at least one of these finding or interventions was scored as having a flare.
(§2) Clinical trial results were analyzed for each group (placebo and DHEA-treated) as a whole (“per-protocol”), as well as broken down into three subgroups: all patients with SLEDAI values greater than 2 (“active SLE”), and patients having SLEDAI values greater than 2 and receiving corticosteroids and/or immunosuppressives (“more severe SLE”).
as §1, with “Patients received” for “Treatment was with”, “(308.4” for “(308”
At about 200 days of treatment, incidence of flare is at least about 5% lower in the treated patients, and from this point on, the difference in flare incidence between the treated and placebo patients grows to at least about 10%.

SLE patients [5] = experiment: Clinical trial: percent responders (weighted average change from baseline, no clinical deterioration); type: in vivo, human; conditions: 200 mg DHEA per day orally
Description: as §2
as §1, with “Patients received” for “Treatment was with”, “(308.4” for “(308”
The last three columns of the table show the results of the study for patients experiencing at least one flare during the study.

[6] = Group II: All patients with SLEDAI > 2
[7] = Group II: All patients with SLEDAI > 2, N = 132
[8] = Group III: All patients with SLEDAI > 2, Pred > 0
[9] = Group III: All patients with SLEDAI > 2, Pred > 0, N = 73
[10] = Active SLE (SLEDAI > 2 at baseline)
[11] = More Severe SLE (SLEDAI > 2 and receiving corticosteroids and/or immunosuppressives at baseline)

Structure (SMILES): C[C@]12CC[C@H](O)CC1=CC[C@@H]1[C@@H]2CC[C@]2(C)C(=O)CC[C@@H]12 [DHEA form I, dehydroepiandrosterone]
- Uptake by the GI tract [1]: good uptake by the GI tract
- Stability [2]: highly stable under ambient conditions

Structure (SMILES): C[C@]12CC[C@H](O)CC1=CC[C@@H]1[C@@H]2CC[C@]2(C)C(=O)CC[C@@H]12 [DHEA form II, dehydroepiandrosterone]
- Rate of absorption [1]: rapid rate of absorption (greater than the form I polymorph)
- Uptake by the GI tract [1]: good uptake by the GI tract
- Stability [2]: stable under ambient conditions

Structure (SMILES): C[C@]12CC[C@H](O)CC1=CC[C@@H]1[C@@H]2CC[C@]2(C)C(=O)CC[C@@H]12 [DHEA, dehydroepiandrosterone]
- Improvement over placebo, responders (3% window) (SLE patients [3]; Group I: All patients): 39.8%
- Improvement over placebo, responders (5% window) (SLE patients [3]; Group I: All patients): 32.1%
- Improvement over placebo, responders (10% window) (SLE patients [3]; Group I: All patients): 38.0%
- Responders (3% window), number of patients (SLE patients [3]; Group I: All patients, N = 170): 77
- Responders (3% window), percent (SLE patients [3]; Group I: All patients, N = 170): 45.3%
- Responders (5% window), number of patients (SLE patients [3]; Group I: All patients, N = 170): 79
- Responders (5% window), percent (SLE patients [3]; Group I: All patients, N = 170): 46.5%
- Responders (10% window), number of patients (SLE patients [3]; Group I: All patients, N = 170): 92
- Responders (10% window), percent (SLE patients [3]; Group I: All patients, N = 170): 54.1%
- Improvement over placebo, responders (3% window) (SLE patients [3]; [6]): 54.4%
- Improvement over placebo, responders (5% window) (SLE patients [3]; [6]): 47.1%
- Improvement over placebo, responders (10% window) (SLE patients [3]; [6]): 51.1%
- Responders (3% window), number of patients (SLE patients [3]; [7]): 72
- Responders (3% window), percent (SLE patients [3]; [7]): 54.5%
- Responders (5% window), number of patients (SLE patients [3]; [7]): 73
- Responders (5% window), percent (SLE patients [3]; [7]): 55.3%
- Responders (10% window), number of patients (SLE patients [3]; [7]): 84
- Responders (10% window), percent (SLE patients [3]; [7]): 63.6%
- Improvement over placebo, responders (3% window) (SLE patients [3]; [8]): 64.3%
- Improvement over placebo, responders (5% window) (SLE patients [3]; [8]): 68.6%
- Improvement over placebo, responders (10% window) (SLE patients [3]; [8]): 82.2%
- Responders (3% window), number of patients (SLE patients [3]; [9]): 39
- Responders (3% window), percent (SLE patients [3]; [9]): 53.4%
- Responders (5% window), number of patients (SLE patients [3]; [9]): 40
- Responders (5% window), percent (SLE patients [3]; [9]): 54.8%
- Responders (10% window), number of patients (SLE patients [3]; [9]): 45
- Responders (10% window), percent (SLE patients [3]; [9]): 61.6%
- Patients with at least one flare, patients/total (SLE patients [4]; [10]): (31/132)
- Patients with at least one flare, percent (SLE patients [4]; [10]): 24%
- Time of treatment at which reduction of the risk of flare begins (SLE patients [4]; FIG. 1, active SLE patients, compared to the placebo group): about 85 days
- Incidence of flare lower in treated patients than placebo (SLE patients [4]; FIG. 1, at about 200 days of treatment): at least 5%
- Difference in flare incidence between treated and placebo patients (SLE patients [4]; FIG. 1, grows to this after about 200 days of treatment): at least 10%
- Patients with at least one flare, patients/total (SLE patients [4]; [11]): (21/80)
- Patients with at least one flare, percent (SLE patients [4]; [11]): 26%
- Patients with at least one flare, patients/total (SLE patients [4]; Per Protocol population): (37/170)
- Patients with at least one flare, percent (SLE patients [4]; Per Protocol population): 22%
- Effect on occurrence of flares (SLE patients [4]; Table 8 study, effect increased with severity of disease): reduced the occurrence of flares
- Responders, patients/total (SLE patients [5]; [10]): (87/132)
- Responders, percent (SLE patients [5]; [10]): 66%
- Responders, patients/total (SLE patients [5]; [11]): (51/80)
- Responders, percent (SLE patients [5]; [11]): 64%
- Responders, patients/total (SLE patients [5]; Per Protocol population): (99/170)
- Responders, percent (SLE patients [5]; Per Protocol population): 58%
